# From patent US11110080B2, “Small molecule inhibitors of bacterial efflux pumps and methods of using same” (The Regents of the University of Colorado, a body Corporate, priority 2017, dated 2021)
# Entries after “also recorded” stand apart in the source; their conditions may differ. Like-named read-outs stand apart in the source and are kept apart here. Peptide text beside a SMILES is read from it. * marks the point of attachment. βNA = c1ccc2cc(N*)ccc2c1
# Assays:
# [1] = tested on: Salmonella enterica serovar Typhimurium (S.Tm) within RAW 264.7 murine macrophages; test: SAFIRE: fluorescence microscopy assay of S.Tm load within macrophages; type: cell-based; details: for hit status in SAFIRE screen: Maybridge HitFinder v11 library screened at 25 μM; for percentage of infected macrophages (validated hit): among the 309 hits
# Procedure: A high-content, high-throughput fluorescence microscopy-based screening platform to assay S.Tm load within macrophages was developed (FIG. 1A). RAW 264.7 murine macrophages, a widely used cell line for bacterial infection studies, were infected with bacteria in a standard gentamicin protection assay. The Salmonella expressing GFP driven by the sifB promoter was incubated with the compound beginning at 2 hours post-infection. At 18 hours post-infection, cells were stained with MitoTracker Red CMXRos as a marker of macrophage vitality and processed for fluorescence microscopy. Stained with DAPI. A MATLAB®-based algorithm was developed to quantify infection (FIG. 1B) and compared to statistics to describe infection. Percentage of infected cells was determined by counting the proportion of macrophages within an image with at least 2 GFP+ pixels. Infection area was calculated by normalizing the number of GFP+ pixels within a cell to the cell's total area, then averaging across all cells in an image. To evaluate the approach, 2 μg/ml rifampicin in 96-well and 384-well plates was tested in three independent replicates. The Z′-factor was employed as a measure of assay reproducibility. Numbers close to 1 indicated high reproducibility. For percentage of infected macrophages, the Z′-factor was 0.59 and 0.48 in 96-well and 384-well plates, respectively, compared with 0.66 and 0.38 for infection area. The optimal Z′-factor threshold for high-throughput screening was 0.5; however, values above 0 were considered marginal but feasible. Therefore, the percentage of infected macrophages statistic was used.
# The 14,400 compound library Maybridge HitFinder™ v11 was screened, which has been extensively screened against mammalian and microbial targets. The library was screened in duplicate at 25 μM in 384-well plates (FIG. 1C). Data were normalized using the B-score method to remove positional variation. The significance of B-scores was calculated using a modified t-test assuming an inverse gamma distribution of variances. Using a dual threshold of B-score greater than 1 and standard deviation from the mean and p-value less than 0.05, 908 compounds (6.3%) were identified that decreased or increased the percentage of infected macrophages. […] Compounds that altered infection by at least 25% in 96-well plates were considered validated hits.
# For high-throughput screening and validation, 7×10^3 macrophages in 40 μL or 3×10^4 macrophages in 100 μL were seeded in 384- or 96-well black-walled, glass-bottomed plates (Brooks Automation). […] Forty-five minutes after bacterial addition, 20 or 50 μL gentamicin was added to a final concentration of 40 μg/mL. […] At 2 hours post-infection, 200 or 500 nL compound was added using a pin tool (CyBio) to yield a final concentration of 25 μM. Each assay plate included rifampicin and DMSO controls. In some experiments, media was removed and replaced with fresh medium containing 40 μg/mL gentamicin and the indicated concentrations of drugs. At 17.5 hours post-infection, PBS containing MitoTracker Red CMXRos (Life Technologies) was added to yield a final concentration of 300 nM (384-well) or 100 nM (96-well). Thirty minutes later, 16% paraformaldehyde was added to a final concentration of 1-2% and incubated at room temperature for 15 minutes. Wells were washed twice with PBS and stained for 20 minutes with 1 μM DAPI; wells were washed twice and stored in 90% glycerol in PBS until imaging.
# High magnification images were acquired on an Olympus IX81 inverted widefield microscope. For screening imaging, three-color images were acquired at 10× or 20× on a Cellomics ArrayScan VTI (Thermo) and exported to DIB files. At least two images were taken per well for all experiments. […]
# S.Tm efflux pumps [2] = test: Hoechst 33342 accumulation assay; type: cell-based, Salmonella enterica serovar Typhimurium; details: wild-type S.Tm, 60 minutes
# Procedure: Efflux pumps (EPs) represent a key pathogen virulence strategy to protect against host antimicrobials as well as therapeutic antibiotics. […] To uncover putative EPMs within our collection of hits, 58 repurchased compounds were screened in a Hoechst accumulation assay. Bacteria were incubated with Hoechst 33342, a dye which fluoresces when bound to DNA.
# Hoechst accumulation assays were performed essentially as described in the literature. Briefly, overnight Salmonella cultures were washed 3 times in PBS and diluted to an OD of 0.1 in PBS with 2.5 μM Hoechst 33342 in the presence of the indicated concentrations of compounds. Fluorescence was monitored on a Biotek Synergy 2 with a 360/40 nm excitation filter and 460/40 nm emission filter. The maximum Hoechst fluorescence over 60 minutes of incubation was normalized to the signal from the equivalent number of heat-killed bacteria, after subtraction of autofluroescent signal determined from compound incubated in the absence of bacteria. Curve fitting to determine EC50s was performed using GraphPad Prism.
# S.Tm efflux pumps [3] = test: Nile Red efflux assay; type: cell-based, Salmonella enterica serovar Typhimurium
# Excerpt: Because Hoechst and other dyes commonly used to assess efflux bind cellular components, direct measurement of efflux is not possible using these methods; instead, the Hoechst assay measures dye accumulation, the net result of entry and efflux. Further, the slow off-rate of Hoechst entails that efflux pumps have no effect on dye already bound to DNA. As a result, compounds which increase Hoechst accumulation may actually enhance dye entry by altering porins or disrupting the membrane. To more specifically measure efflux pump activity, a second technique was employed using the dye Nile Red, a lipophilic membrane-partitioning dye which fluoresces in nonpolar environments. Because Nile Red is not known to bind cellular components, to directly observe efflux cells were preloaded with the dye in the absence of glucose to reduce efflux pump activity (FIG. 7A). Upon addition of glucose, bacteria rapidly effluxed Nile Red and fluorescence returned to baseline levels (FIG. 7B, top panel). […] The initial measured fluorescence was lower for DMSO-treated cells (upper dotted line) than for PAβN-treated cells due to glucose-independent efflux during sample preparation (FIG. 8A). Next, it was determined whether efflux pump activity is restored after removal of PAβN. Bacteria were incubated with compound for 15 minutes, pelleted and resuspended in buffer lacking compound, and then stimulated with glucose (FIGS. 7C, 7E).
# Nile Red assays were adapted from an established protocol. Briefly, overnight Salmonella cultures were grown in Mueller-Hinton cation-adjusted broth (Sigma), washed, and resuspended at an OD600 of 2.0. Cells were incubated in 10 μM Nile Red for 3 hours at 37° C. with aeration, then moved to room temperature for 1 hour. After pelleting at 2000× g, dye-loaded cells were aliquoted and combined with compound at the indicated concentrations. Two hundred microliters was loaded into 96-well black walled plates (Greiner) and read using a Varioskan Flash Multimode Reader with 540 nm excitation and 625 nm emission filters. We observed that during loading into plates (˜20 minutes), bacteria were able to efflux Nile Red even in the absence of glucose (FIG. 8A). To activate efflux, glucose was added to a final concentration of 2 mM. In some experiments, bacteria were treated with drug for 15 minutes, pelleted at 16,000×g, resuspended in fresh buffer, and stimulated with 2 mM glucose. All wash and incubation steps were performed in PBS with 1 mM MgCl2; incubations were performed in glass tubes to reduce adhesion of Nile Red.
# [4] = Log D, solubility and predicted bioavailability; type: physicochemical; details: high concentrations
# [5] = tested on: S.Tm wild-type SL1344, MAR1 and S10801; test: microbe, parasite or virus in culture; type: cell-based, Salmonella enterica serovar Typhimurium; details: for MIC: Salmonella enterica
# Procedure: Increased expression or function of efflux pumps often contributes to clinical multidrug resistance. Therefore, whether the EPMs re-sensitize two multidrug resistant strains of S.Tm to tetracycline was tested. Tetracycline is an antibiotic exported by AcrAB. The MAR1 strain is derived from wild-type SL1344 was selected by exposure to tetracycline, and has increased expression of the AcrAB efflux pump. S10801 is an MDR strain isolated from the mesenteric lymph node of a septic calf and is resistant to tetracycline, ampicillin, chloramphenicol, nalidixic acid, and triple sulfa. The basis of multi-drug resistance in this strain is unknown.
# Overnight Salmonella cultures were washed 3 times in PBS and diluted to an OD of 0.01 in Mueller Hinton Broth in 96-well flat bottom plates. Compound was added using a pin tool (CyBio) or manually, yielding a final concentration of no more than 1% DMSO. Plates were grown at 37° C. shaking and OD600 was monitored using a BioTek Eon incubator shaker microplate absorbance reader. For experiments in defined media, bacteria were grown in M9 minimal media supplemented with 100 mM Tris pH 7.4, 0.35% glycerol, 0.002% histidine, 10 mM MgCl2, and 0.1% casamino acids. Where indicated, media was supplemented with 5 μg/ml polymyxin B or 0.2 mM H2O2. For experiments with LL-37, bacteria were grown in M9 minimal media supplemented with 0.4% dextrose, 0.004% histidine, 1 mM MgSO4, and 5 μg/ml LL-37. For checkerboard assays, MIC was defined as the concentration at which no growth was visually observed.
# S.Tm = test: Swimming assay in soft agar (proton motive force); type: cell-based, Salmonella enterica serovar Typhimurium; details: 400× the MIC (4 μM)
# Procedure: One way to inhibit efflux pumps is to disrupt the proton motive force, which is required for transport by some EPs. […] Bacteria were injected into the center of 0.25% agar plates, and 10 μl of compound was added to paper disks on the periphery. […] Also ampicillin and rifampicin were tested. We plotted the halo radius versus the concentration as the fold above the MIC (FIG. 9G). […] Next, it was determined whether PAβN inhibited swimming; PAβN is thought to disrupt membranes over long incubations. […] Finally, the EPMs at […] were tested (FIGS. 9D-F).
# Saturated overnight cultures were diluted to an OD600 of 0.01 in LB and 1 μL was injected into the center of low agar (0.25%) LB plates. Ten microliters of the indicated compounds were added to sterilized Whatman paper disks (diameter 0.7 cm) placed equidistant from the plate center.
compound,measurement,setting,value
CC1(C)S[C@@H]2[C@H](N)C(=O)N2[C@H]1C(=O)O [6-aminopenicillinate],activity in the screen,[1]; 25 μM,modest activity
same,average B-score from the screen,"[1]; 25 μM, duplicate, threshold −2.17",−2.29
same,hit status in SAFIRE screen,[1],6-aminopenicillinate^2
Nc1c2ccccc2nc2ccccc12 [9-aminoacridine],percentage of infected macrophages (validated hit),[1]; 25 μM,decreased the percentage of infected macrophages
same,hit status in SAFIRE screen,[1],9-aminoacridine^1
O=C(N[C@H](CO)[C@H](O)c1ccc([N+](=O)[O-])cc1)C(Cl)Cl [Chloramphenicol],percentage of infected macrophages (validated hit),[1]; 25 μM,decreased the percentage of infected macrophages
same,hit status in SAFIRE screen,[1],Chloramphenicol^1
CN(C)CCCN1c2ccccc2CCc2ccc(Cl)cc21 [Clomipramine],hit status in SAFIRE screen,[1],Clomipramine^1
O=C(NC1CCN(CCc2c[nH]c3ccccc23)CC1)c1ccccc1 [Indoramin],hit status in SAFIRE screen,[1],Indoramin^1
"Br.NC(N)=NCCCC(NC(=O)C(N)Cc1ccccc1)C(=O)Nc1ccc2ccccc2c1 (stereo not drawn) [PAβN, Phe-Arg β-naphthylamide, reference compound] (H-Phe-Arg-βNA; configuration not given here)",Hoechst accumulation / fluorescence,S.Tm efflux pumps [2],Hoechst accumulation increased
same,Hoechst accumulation / fluorescence,S.Tm efflux pumps [2]; listed as PaβN,higher levels of fluorescence
same,glucose-activated efflux of Nile Red,S.Tm efflux pumps [3]; 500 μM,inhibited glucose-activated efflux
same,"Nile Red efflux, dose response",S.Tm efflux pumps [3]; 7 minutes post-glucose addition,dose dependent inhibition of Nile Red efflux; also recorded: reduced the rate and extent of Nile Red export
same,Nile Red efflux after washout of compound,"S.Tm efflux pumps [3]; 15 minutes with compound, washed, then glucose",partially restored Nile Red export
same,Nile Red fluorescence in the absence of glucose (basal loss),S.Tm efflux pumps [3]; no glucose,inhibit basal loss of Nile Red
same,solubility in cell culture media,[4],insolubility of high concentrations in cell culture media
same,decrease of the tetracycline MIC,"[5]; 250 μM (⅛ MIC), both strains MAR1 and S10801",4 fold
"O=C(O)c1cn(C2CC2)c2cc(N3CCNCC3)c(F)cc2c1=O [ciprofloxacin, reference compound]",halo in swimming assay,S.Tm,formed a halo similar in size to that of CCCP
CN(C)[C@@H]1C(O)=C(C(N)=O)C(=O)[C@@]2(O)C(O)=C3C(=O)c4c(O)cccc4[C@@](C)(O)[C@H]3C[C@@H]12 [tetracycline],increase in tetracycline MIC over wild type,[5]; MAR1,2 fold
same,increase in tetracycline MIC over wild type,[5]; S10801,64 fold
same,MIC,"[5]; read-out: tetracycline MIC, MAR1",4 µg/mL
same,MIC,"[5]; read-out: tetracycline MIC, S10801",128 µg/mL
same,MIC,"[5]; read-out: tetracycline MIC, wild-type S.Tm",2 µg/mL
